{"source": "ChEMBL document CHEMBL1201862", "about": "“PubChem BioAssay data set” (2004)", "assay_in_all_cases": "NCI tumour cell line growth inhibition, 48 h", "key": {"[1]": {"test_system": "T47D"}, "[2]": {"test_system": "NCI/ADR-RES"}, "[3]": {"test_system": "786-0"}, "[4]": {"test_system": "OVCAR-5"}, "[5]": {"test_system": "UACC-257"}, "[6]": {"test_system": "EKVX"}, "[7]": {"test_system": "CCRF-CEM"}, "[8]": {"test_system": "TK-10"}, "[9]": {"test_system": "A549"}, "[10]": {"test_system": "RPMI-8226"}, "[11]": {"test_system": "OVCAR-3"}, "[12]": {"test_system": "MOLT-4"}, "[13]": {"test_system": "HCC 2998"}, "[14]": {"test_system": "SNB-75"}, "[15]": {"test_system": "UO-31"}, "[16]": {"test_system": "SK-MEL-2"}, "[17]": {"test_system": "SF-295"}, "[18]": {"test_system": "CAKI-1"}, "[19]": {"test_system": "UACC-62"}, "[20]": {"test_system": "Malme-3M"}, "[21]": {"test_system": "PC-3"}, "[22]": {"test_system": "SF-539"}, "[23]": {"test_system": "HOP-62"}, "[24]": {"test_system": "MDA-MB-231"}, "[25]": {"test_system": "HT-29"}, "[26]": {"test_system": "NCI-H23"}, "[27]": {"test_system": "MDA-N"}, "[28]": {"test_system": "MCF7"}, "[29]": {"test_system": "SK-MEL-28"}, "[30]": {"test_system": "HOP-92"}, "[31]": {"test_system": "NCI-H522"}, "[32]": {"test_system": "OVCAR-8"}, "[33]": {"test_system": "NCI-H226"}, "[34]": {"test_system": "KM12"}, "[35]": {"test_system": "OVCAR-4"}, "[36]": {"test_system": "HCT-15"}, "[37]": {"test_system": "HCT-116"}, "[38]": {"test_system": "A498"}, "[39]": {"test_system": "SF-268"}, "[40]": {"test_system": "ACHN"}, "[41]": {"test_system": "DU-145"}, "[42]": {"test_system": "NCI-H460"}, "[43]": {"test_system": "Hs-578T"}, "[44]": {"test_system": "SN12C"}, "[45]": {"test_system": "COLO 205"}, "[46]": {"test_system": "M14"}, "[47]": {"test_system": "RXF 393"}, "[48]": {"test_system": "SK-OV-3"}, "[49]": {"test_system": "SR"}, "[50]": {"test_system": "SK-MEL-5"}, "[51]": {"test_system": "LOX IMVI"}, "[52]": {"test_system": "SNB-19"}, "[53]": {"test_system": "SW-620"}, "[54]": {"test_system": "K562"}, "[55]": {"test_system": "IGROV-1"}, "[56]": {"test_system": "MDA-MB-435"}, "[57]": {"test_system": "U-251"}}, "note": "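Each compound was tested at five concentrations against cells in 96-well plates for 48 hours. GI50: concentration for 50% inhibition of growth.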 Active and inactive are the calls of the source. Cut-off read from the data, not from the text of the source: active = GI50 up to about 1.1 µM and inactive = higher.", "data": [{"compound": "[N-]=[N+]=Nc1c(Cl)c(Cl)nc2ccccc12", "values": [{"measurement": "GI50", "setting": "[1]", "result": "68.1 µM (inactive)"}, {"measurement": "GI50", "setting": "[2]", "result": "> 100 µM (inactive)"}, {"measurement": "GI50", "setting": "[3]", "result": "> 100 µM (inactive)"}, {"measurement": "GI50", "setting": "[4]", "result": "> 100 µM (inactive)"}, {"measurement": "GI50", "setting": "[5]", "result": "> 100 µM (inactive)"}, {"measurement": "GI50", "setting": "[6]", "result": "92.7 µM (inactive)"}, {"measurement": "GI50", "setting": "[7]", "result": "54.5 µM (inactive)"}, {"measurement": "GI50", "setting": "[8]", "result": "95.9 µM (inactive)"}, {"measurement": "GI50", "setting": "[9]", "result": "> 100 µM (inactive)"}, {"measurement": "GI50", "setting": "[10]", "result": "62.8 µM (inactive)"}, {"measurement": "GI50", "setting": "[11]", "result": "34.5 µM (inactive)"}, {"measurement": "GI50", "setting": "[12]", "result": "32.7 µM (inactive)"}, {"measurement": "GI50", "setting": "[13]", "result": "> 100 µM (inactive)"}, {"measurement": "GI50", "setting": "[14]", "result": "44.8 µM (inactive)"}, {"measurement": "GI50", "setting": "[15]", "result": "> 100 µM (inactive)"}, {"measurement": "GI50", "setting": "[16]", "result": "> 100 µM (inactive)"}, {"measurement": "GI50", "setting": "[17]", "result": "82.8 µM (inactive)"}, {"measurement": "GI50", "setting": "[18]", "result": "21.2 µM (inactive)"}, {"measurement": "GI50", "setting": "[19]", "result": "> 100 µM (inactive)"}, {"measurement": "GI50", "setting": "[20]", "result": "> 100 µM (inactive)"}, {"measurement": "GI50", "setting": "[21]", "result": "> 100 µM (inactive)"}, {"measurement": "GI50", "setting": "[22]", "result": "> 100 µM (inactive)"}, {"measurement": "GI50", "setting": "[23]", "result": "> 100 µM (inactive)"}, {"measurement": "GI50", "setting": "[24]", "result": "81.5 µM (inactive)"}, {"measurement": "GI50", "setting": "[25]", "result": "> 100 µM (inactive)"}, {"measurement": "GI50", "setting": "[26]", "result": "75.5 µM (inactive)"}, {"measurement": "GI50", "setting": "[27]", "result": "> 100 µM (inactive)"}, {"measurement": "GI50", "setting": "[28]", "result": "54.5 µM (inactive)"}, {"measurement": "GI50", "setting": "[29]", "result": "> 100 µM (inactive)"}, {"measurement": "GI50", "setting": "[30]", "result": "35.3 µM (inactive)"}, {"measurement": "GI50", "setting": "[31]", "result": "71.3 µM (inactive)"}, {"measurement": "GI50", "setting": "[32]", "result": "> 100 µM (inactive)"}, {"measurement": "GI50", "setting": "[33]", "result": "66.7 µM (inactive)"}, {"measurement": "GI50", "setting": "[34]", "result": "> 100 µM (inactive)"}, {"measurement": "GI50", "setting": "[35]", "result": "85.7 µM (inactive)"}, {"measurement": "GI50", "setting": "[36]", "result": "> 100", "unit": "µM"}, {"measurement": "GI50", "setting": "[37]", "result": "> 100 µM (inactive)"}, {"measurement": "GI50", "setting": "[38]", "result": "81.5 µM (inactive)"}, {"measurement": "GI50", "setting": "[39]", "result": "> 100 µM (inactive)"}, {"measurement": "GI50", "setting": "[40]", "result": "91.4 µM (inactive)"}, {"measurement": "GI50", "setting": "[41]", "result": "72.1 µM (inactive)"}, {"measurement": "GI50", "setting": "[42]", "result": "> 100 µM (inactive)"}, {"measurement": "GI50", "setting": "[43]", "result": "61.8 µM (inactive)"}, {"measurement": "GI50", "setting": "[44]", "result": "76 µM (inactive)"}, {"measurement": "GI50", "setting": "[45]", "result": "> 100 µM (inactive)"}, {"measurement": "GI50", "setting": "[46]", "result": "> 100 µM (inactive)"}, {"measurement": "GI50", "setting": "[47]", "result": "88.5 µM (inactive)"}, {"measurement": "GI50", "setting": "[48]", "result": "> 100 µM (inactive)"}, {"measurement": "GI50", "setting": "[49]", "result": "> 100 µM (inactive)"}, {"measurement": "GI50", "setting": "[50]", "result": "> 100 µM (inactive)"}, {"measurement": "GI50", "setting": "[51]", "result": "62.1 µM (inactive)"}, {"measurement": "GI50", "setting": "[52]", "result": "> 100 µM (inactive)"}, {"measurement": "GI50", "setting": "[53]", "result": "93.8 µM (inactive)"}, {"measurement": "GI50", "setting": "[54]", "result": "81.3 µM (inactive)"}, {"measurement": "GI50", "setting": "[55]", "result": "77.6 µM (inactive)"}, {"measurement": "GI50", "setting": "[56]", "result": "> 100 µM (inactive)"}]}, {"compound": "COc1cc2ccc3ccncc3c2cc1OC", "values": [{"measurement": "GI50", "setting": "[1]", "result": "> 10 µM (inactive)"}, {"measurement": "GI50", "setting": "[2]", "result": "> 10 µM (inactive)"}, {"measurement": "GI50", "setting": "[3]", "result": "> 10 µM (inactive)"}, {"measurement": "GI50", "setting": "[4]", "result": "> 10 µM (inactive)"}, {"measurement": "GI50", "setting": "[7]", "result": "> 10 µM (inactive)"}, {"measurement": "GI50", "setting": "[9]", "result": "> 10 µM (inactive)"}, {"measurement": "GI50", "setting": "[10]", "result": "> 10 µM (inactive)"}, {"measurement": "GI50", "setting": "[12]", "result": "> 10 µM (inactive)"}, {"measurement": "GI50", "setting": "[14]", "result": "> 10 µM (inactive)"}, {"measurement": "GI50", "setting": "[16]", "result": "> 10 µM (inactive)"}, {"measurement": "GI50", "setting": "[18]", "result": "> 10 µM (inactive)"}, {"measurement": "GI50", "setting": "[19]", "result": "> 10 µM (inactive)"}, {"measurement": "GI50", "setting": "[20]", "result": "> 10 µM (inactive)"}, {"measurement": "GI50", "setting": "[23]", "result": "> 10 µM (inactive)"}, {"measurement": "GI50", "setting": "[57]", "result": "> 10 µM (inactive)"}, {"measurement": "GI50", "setting": "[26]", "result": "> 10 µM (inactive)"}, {"measurement": "GI50", "setting": "[28]", "result": "> 10 µM (inactive)"}, {"measurement": "GI50", "setting": "[29]", "result": "> 10 µM (inactive)"}, {"measurement": "GI50", "setting": "[35]", "result": "> 10 µM (inactive)"}, {"measurement": "GI50", "setting": "[39]", "result": "> 10 µM (inactive)"}, {"measurement": "GI50", "setting": "[40]", "result": "> 10 µM (inactive)"}, {"measurement": "GI50", "setting": "[42]", "result": "> 10 µM (inactive)"}, {"measurement": "GI50", "setting": "[45]", "result": "> 10 µM (inactive)"}, {"measurement": "GI50", "setting": "[46]", "result": "> 10 µM (inactive)"}, {"measurement": "GI50", "setting": "[47]", "result": "> 10 µM (inactive)"}, {"measurement": "GI50", "setting": "[48]", "result": "> 10 µM (inactive)"}, {"measurement": "GI50", "setting": "[49]", "result": "> 10 µM (inactive)"}, {"measurement": "GI50", "setting": "[50]", "result": "> 10 µM (inactive)"}, {"measurement": "GI50", "setting": "[53]", "result": "> 10 µM (inactive)"}, {"measurement": "GI50", "setting": "[54]", "result": "> 10 µM (inactive)"}, {"measurement": "GI50", "setting": "[55]", "result": "> 10 µM (inactive)"}, {"measurement": "GI50", "setting": "[56]", "result": "> 10 µM (inactive)"}]}]}
